Where “and” joins values, the source holds several entries; their conditions need not be identical. Equal entries are not always repeated.
System: 485176-168-R4-J1-PDC complex spheroid growth
Assay: Anticancer human tumor 485176-168-R4-J1-PDC patient-derived pancreatic adenocarcinoma cell line growth inhibition [RAS]
Conditions: for viability, T/C: stronger effect = lower value
Text: RAS pathway inhibitors in Combinations in Complex Spheroids
A high-throughput screen of multi-cell type tumor spheroids was designed to identify active combinations of RAS pathway inhibitors and targeted small molecules. Complex spheroids include a stromal component modeled by human endothelial cells (HUVEC) and fibroblasts modeled by human mesenchymal stem cells (MSCs). The concentration ranges selected for each drug and investigational agent were based upon clinically achievable concentrations if the clinical Cmax of the agent was known.
Compounds. The drugs and investigational agents: abemaciclib (NSC768073), cobimetinib (NSC768068), divarasib (GDC6063, NSC841802), docetaxel (NSC628503), GDC-1971 (RLY-1971, NSC841576), gemcitabine (NSC613327), inavolisib (NSC800729), ipatasertib (NSC767898), KB-0742 (NSC834161), MRTX-1133 (NSC836407), osimertinib (NSC779217), RMC-4630 (NSC839698), RMC-6236 (NSC851965), RMC-6291 (NSC852671), Ro-3306 (NSC812927), sapanisertib (NSC764658), SN-38 (NSC673596), staurosporine (NSC755774), SY5609 (NSC837396), and tovorafenib (DAY101, NSC766906), were obtained from the National Cancer Institute (NCI) Developmental Therapeutics Program Chemical Repository. The FDA-approved anticancer drug set is available from the NCI Developmental Therapeutics Program. […] The stock solutions were prepared in dimethyl sulfoxide (DMSO, Sigma-Aldrich, St. Louis, MO, cat. D2650) at 800-fold the tested concentration and stored at -70 degrees C prior to their use. All drugs and investigational agents were tested over a range starting from a high concentration at or near the clinical Cmax and decreasing in half-log increments. If the clinical Cmax for an agent had not been determined, the highest concentration tested was 10 microM.
Cell Culture. All cells were maintained in an incubator at 37 degrees C and 5% CO2 with 95% humidity. The PDC lines were cultured according to standard operating procedures established by the NCI PDMR. All PDCs were thawed and cultured in Matrigel-coated flasks prepared with a working solution of 1X Ham's F-12 nutrient mix, without supplementation (Invitrogen, Waltham, MA, cat. 11765054), 100 U/mL penicillin-streptomycin (Invitrogen, cat. 15140122), and 2.5% Matrigel (Corning Inc., Corning, NY, cat. 354248) for the first three passages. The 362531-283-R-J2-PDC and 782815-120-R-J1-PDC lines were cultured in 6C/Colon 1B media, which includes advanced DMEM/F-12 (Thermo Fisher Scientific, cat. 12634028), 10 mM HEPES (Thermo Fisher Scientific, cat. 15630080), 1X GlutaMAX supplement (Thermo Fisher Scientific, cat. 35050061), 0.1 mg/mL primocin (InvivoGen, San Diego, CA, cat. ant-pm-2), 10% defined fetal bovine serum, heat inactivated (HyClone Laboratories Inc., Logan, UT, cat. SH30070.03HI), 50% L-WRN conditioned media (ATCC, cat. CRL-3276), 1.25 mM N-Acetyl-L-cysteine (Sigma-Aldrich, cat. A9165), 10 mM nicotinamide (Sigma-Aldrich, cat. N0636), 1X B-27 supplement (Thermo Fisher Scientific, cat. 17504044), 1X N-2 supplement (Thermo Fisher Scientific, cat. 17502048), 50 ng/mL human EGF (Thermo Fisher Scientific, cat. PHG0311), and 10 microM Y-27632 dihydrochloride (Tocris Bioscience, cat. 1254). The K12877-001-R-J1-PDC line was cultured in 6I media, which includes all 6C/Colon 1B media plus 10 ng/mL human FGF-10 (PeproTech, cat. 100-26), 1 ng/mL human FGF-2 (PeproTech, cat. 100-18B), 1 µM prostaglandin E2 (Tocris Bioscience, cat. 2296), […] hydrocortisone (Sigma-Aldrich, cat. H4001), and […] bovine insulin (Sigma-Aldrich, cat. I6634). The K86415-001-R-J1-PDC line was cultured in 6D media, which includes all 6C/Colon 1B media components minus the L-WRN conditioned media. The 485176-168-R4-J1-PDC was cultured in PANC media, which includes all 6C/Colon 1B media plus 100 ng/mL human FGF-10 (PeproTech, cat. 100-26), 500 nM SB-431542 (Selleckchem, cat. S1067), and 10 nM gastrin (Tocris Bioscience, cat. 3006). […]

[1] = compound alone, run of 05/20/2024
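Note: spheroids exposed to compounds for seven days before readout.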
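Throughout, for viability, T/C: luminescence viability expressed relative to DMSO vehicle wells set as 100%.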

| IC50 (curve of compound) | Compound | viability, T/C (compound 0.1 µM) | viability, T/C (compound 1 µM) | viability, T/C (compound 0.0316 µM) | viability, T/C (compound 0.316 µM) | viability, T/C (compound 3.16 µM) | viability, T/C (compound 10 µM) | also measured |
| --- | --- | --- | --- | --- | --- | --- | --- | --- |
| > 1000 nM | C=CC(=O)N1CCN(c2nc(OCC3CCCN3C)nc3c(F)c(-c4nc(N)cc(C)c4C(F)(F)F)c(Cl)cc23)C(C)C1 (configuration not stated) | 98.5% [middle of 12 runs] | 102% [middle of 12 runs] |  |  |  |  | IC50 (compound alone, run of 06/10/2024): > 1000 nM |
| > 1000 nM | C=CC(=O)Nc1cc(Nc2nccc(-c3cn(C)c4ccccc34)n2)c(OC)cc1N(C)CCN(C)C |  | 64.5% [middle of 4 runs] | 96.3% [middle of 4 runs] | 93.2% [middle of 4 runs] |  |  | viability, T/C (compound 0.00316 µM): 96.8% [middle of 4 runs]; viability, T/C (compound 0.01 µM): 97.1% [middle of 4 runs] |
| < 31.6 nM | CC(=O)OC12COC1CC(O)C1(C)C(=O)C(O)C3=C(C)C(OC(=O)C(O)C(NC(=O)OC(C)(C)C)c4ccccc4)CC(O)(C(OC(=O)c4ccccc4)C21)C3(C)C (configuration not stated) | 14.3% [middle of 4 runs] | 13.4% and 12.8% and 14.2% (2×) | 15.6% [middle of 4 runs] | 12.7% [middle of 4 runs] | 17.2% [middle of 4 runs] | 17.7% and 22.4% (2×) and 25.1% |  |
| 2.32 µM [middle of 4 runs] | CC(C)NCC(C(=O)N1CCN(c2ncnc3c2C(C)CC3O)CC1)c1ccc(Cl)cc1 (configuration not stated) | 93.9% [middle of 4 runs] | 58.8% [middle of 4 runs] | 96.6% [middle of 4 runs] | 80.4% [middle of 4 runs] | 47.7% [middle of 4 runs] | 35% [middle of 4 runs] |  |
| 31.2 nM [middle of 4 runs] | CC(C)n1nc(-c2ccc3oc(N)nc3c2)c2c(N)ncnc21 | 22.3% [middle of 4 runs] |  | 49.2% [middle of 4 runs] |  |  |  | viability, T/C (compound 0.000316 µM): 104% [middle of 4 runs]; viability, T/C (compound 0.001 µM): 77.8% [middle of 4 runs]; viability, T/C (compound 0.00316 µM): 84.1% [middle of 4 runs]; viability, T/C (compound 0.01 µM): 77.2% [middle of 4 runs] |
| > 10000 nM | CC(Nc1ccc2c(c1)OCCn1cc(N3C(=O)OCC3C(F)F)nc1-2)C(N)=O (configuration not stated) | 89.2% [middle of 4 runs] | 75.3% [middle of 4 runs] | 97.9% [middle of 4 runs] | 84.7% [middle of 4 runs] | 69.1% [middle of 4 runs] | 55.5% [middle of 4 runs] |  |
|  | CC1(C)CCC(Nc2ncc(C(F)(F)F)c(-c3c[nH]c4c(P(C)(C)=O)c(C#N)ccc34)n2)CN1 (configuration not stated) |  |  |  |  |  |  | viability, T/C (compound 0.000949 µM): 110% (2×) and 103% and 111%; viability, T/C (compound 0.003 µM): 90.3% [middle of 4 runs]; viability, T/C (compound 0.00949 µM): 77.3% [middle of 4 runs]; viability, T/C (compound 0.03 µM): 62.6% [middle of 4 runs]; viability, T/C (compound 0.0949 µM): 50.2% [middle of 4 runs]; viability, T/C (compound 0.3 µM): 49.1% [middle of 4 runs] |
| 2.72 µM [middle of 4 runs] | CC1(O)CCCC1n1c(=O)c(C(F)F)cc2cnc(NC3CCN(S(C)(=O)=O)CC3)nc21 (configuration not stated) | 77.6% [middle of 4 runs] | 72.5% [middle of 4 runs] | 102% [middle of 4 runs] | 70.4% [middle of 4 runs] | 57.5% [middle of 4 runs] | 2.58% [middle of 4 runs] |  |
| 1.58 µM [middle of 4 runs] | CCC(CC)c1cc(NC2CCC(N)C2)n2nccc2n1 (configuration not stated) | 93.7% [middle of 4 runs] | 80.6% [middle of 4 runs] | 105% [middle of 4 runs] | 98.9% [middle of 4 runs] | 3.56% [middle of 4 runs] | 0.72% [middle of 4 runs] |  |
| > 1000 nM | CCN1CCN(Cc2ccc(Nc3ncc(F)c(-c4cc(F)c5nc(C)n(C(C)C)c5c4)n3)nc2)CC1 |  | 67.7% [middle of 4 runs] | 100% [middle of 4 runs] | 75.5% [middle of 4 runs] |  |  | viability, T/C (compound 0.00316 µM): 92.9% [middle of 4 runs]; viability, T/C (compound 0.01 µM): 88.4% [middle of 4 runs] |
| 17.9 nM [middle of 4 runs] | CCc1c2c(nc3ccc(O)cc13)-c1cc3c(c(=O)n1C2)COC(=O)[C@]3(O)CC |  |  |  |  |  |  | viability, T/C (compound 0.003 µM): 86.2% [middle of 4 runs]; viability, T/C (compound 0.00949 µM): 66% [middle of 4 runs]; viability, T/C (compound 0.03 µM): 36.5% [middle of 4 runs]; viability, T/C (compound 0.0949 µM): 14% [middle of 4 runs]; viability, T/C (compound 0.3 µM): 7.88% [middle of 4 runs] |
|  | CCn1c(-c2cc(N3CCN(C)CC3)cnc2C(C)OC)c2c3cc(ccc31)-c1csc(n1)CC(NC(=O)C1CC1C)C(=O)N1CCCC(N1)C(=O)OCC(C)(C)C2 (configuration not stated) |  |  |  |  |  |  | viability, T/C (compound 0.000949 µM): 102% [middle of 8 runs]; viability, T/C (compound 0.003 µM): 102% [middle of 8 runs]; viability, T/C (compound 0.00949 µM): 92.2% [middle of 8 runs]; IC50 [1]: > 300 nM |
|  | CCn1c(-c2cccnc2C(C)OC)c2c3cc(ccc31)N1CCOC(CC(NC(=O)C(C(C)C)N(C)C(=O)C3(F)CCN(C(=O)C#CC(C)(C)N(C)C)CC3)C(=O)N3CCCC(N3)C(=O)OCC(C)(C)C2)C1 (configuration not stated) |  |  |  |  |  |  | viability, T/C (compound 0.003 µM): 104% [middle of 8 runs]; viability, T/C (compound 0.00949 µM): 107% [middle of 8 runs]; viability, T/C (compound 0.03 µM): 93.8% [middle of 8 runs]; viability, T/C (compound 0.0949 µM): 93% [middle of 8 runs]; viability, T/C (compound 0.3 µM): 81.7% [middle of 8 runs]; IC50 [1]: > 300 nM |
| > 10000 nM | C[C@@H](NC(=O)c1ncnc(N)c1Cl)c1ncc(C(=O)Nc2cc(C(F)(F)F)c(Cl)cn2)s1 | 96% [middle of 4 runs] | 79.2% [middle of 4 runs] | 105% [middle of 4 runs] | 88.5% [middle of 4 runs] | 79.1% [middle of 4 runs] | 60.9% [middle of 4 runs] |  |
| > 10000 nM | Cc1nc(N2CCC3(CC2)COC(C)C3N)c(CO)nc1Sc1ccnc(N)c1Cl (configuration not stated) | 86.5% [middle of 4 runs] | 74.3% [middle of 4 runs] | 102% [middle of 4 runs] | 82.8% [middle of 4 runs] | 84.5% [middle of 4 runs] | 63.4% (2×) and 81.9% and 74.9% |  |
| 16.7 nM [middle of 4 runs] | Nc1ccn(C2OC(CO)C(O)C2(F)F)c(=O)n1 (configuration not stated) | 9.63% [middle of 4 runs] | 12.4% [middle of 4 runs] | 17.7% [middle of 4 runs] | 9.78% [middle of 4 runs] |  |  | viability, T/C (compound 0.00316 µM): 97.3% [middle of 4 runs] |
| 206 nM [middle of 4 runs] | O=C(c1ccc(F)c(F)c1Nc1ccc(I)cc1F)N1CC(O)([C@@H]2CCCCN2)C1 | 53.7% [middle of 4 runs] | 39.7% [middle of 4 runs] | 71% [middle of 4 runs] | 51.2% [middle of 4 runs] |  |  | viability, T/C (compound 0.00316 µM): 91.9% [middle of 4 runs]; viability, T/C (compound 0.01 µM): 78.6% [middle of 4 runs] |

— PubChem BioAssay AID2060906 (Molecular Pharmacology Branch, DTP, NCI, 2025)
